This note sets out measurements from patent publication US7601744B2, “Benzothiadiazolylphenylalkylamine derivatives and methods of their use” (Wyeth, priority 2005, dated 2009).

Counter-ions that a name gives are not always drawn.

The assay deals with T1, hNET (Homo sapiens, UniProt P23975).
T1 construct: expressed in transfected cells
The assay is described as follows: Norepinephrine (NE) uptake assay in MDCK-Net6 cells. It is filed as cell-based. The conditions noted are these: [3H]NE uptake. The protocol: MDCK-Net6 cells, stably transfected with human hNET (Pacholczyk, T., R. D. Blakely, and S. G. Amara, Nature, 1991, 350(6316): p. 350-4) were cultured in growth medium containing high glucose DMEM (Gibco, Cat. No. 11995), 10% FBS (dialyzed, heat-inactivated, US Bio-Technologies, Lot FBD1129HI) and 500 µg/ml G418 (Gibco, Cat. No. 10131). Cells were plated at 300,000/T75 flask and cells were split twice weekly. The JAR cell line (human placental choriocarcinoma) was purchased from ATCC (Cat. No. HTB-144). The cells were cultured in growth medium containing RPMI 1640 (Gibco, Cat. No. 72400), 10% FBS (Irvine, Cat. No. 3000), 1% sodium pyruvate (Gibco, Cat. No. 1136) and 0.25% glucose. Cells were plated at 250,000 cells/T75 flask and split twice weekly. For all assays, cells were plated in Wallac 96-well sterile plates (PerkinElmer, Cat. No. 3983498)
On day 1, cells were plated at 3,000 cells/well in growth medium and maintained in a cell incubator (37° C., 5% CO2). On day 2, growth medium was replaced with 200 μl of assay buffer (25 mM HEPES; 120 mM NaCl; 5 mM KCl; 2.5 mM CaCl2; 1.2 mM MgSO4; 2 mg/ml glucose (pH 7.4, 37° C.)) containing 0.2 mg/ml ascorbic acid and 10 μM pargyline. […] The plates were counted in a Wallac Microbeta counter (PerkinElmer) to collect the raw cpm data. […]

T1 sequence (P23975 whole entry): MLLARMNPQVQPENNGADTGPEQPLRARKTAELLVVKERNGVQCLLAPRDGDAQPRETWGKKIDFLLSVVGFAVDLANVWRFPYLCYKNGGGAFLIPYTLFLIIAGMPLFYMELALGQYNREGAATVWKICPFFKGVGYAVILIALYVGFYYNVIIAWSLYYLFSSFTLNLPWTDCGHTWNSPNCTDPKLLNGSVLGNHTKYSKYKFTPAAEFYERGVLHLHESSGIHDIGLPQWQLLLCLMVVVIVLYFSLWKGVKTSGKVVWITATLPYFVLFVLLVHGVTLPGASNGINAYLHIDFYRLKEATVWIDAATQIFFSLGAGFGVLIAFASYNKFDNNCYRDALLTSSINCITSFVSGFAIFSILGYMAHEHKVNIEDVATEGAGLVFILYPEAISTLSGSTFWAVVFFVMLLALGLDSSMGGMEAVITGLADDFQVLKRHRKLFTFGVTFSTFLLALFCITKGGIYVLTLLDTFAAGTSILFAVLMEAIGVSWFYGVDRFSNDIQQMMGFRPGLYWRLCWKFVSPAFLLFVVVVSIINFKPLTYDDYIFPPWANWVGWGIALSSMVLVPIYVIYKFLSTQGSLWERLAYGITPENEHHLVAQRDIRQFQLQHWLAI

One may read the inhibition as how much of the control response was suppressed. Low values mean a weak effect, high ones a strong effect. `CNCC[C@@H](c1ccccc1)N1c2ccccc2N(C)S1(=O)=O` [Example 5, (3S)-N-methyl-3-(3-methyl-2,2-dioxido-2,1,3-benzothiadiazol-1(3H)-yl)-3-phenylpropan-1-amine hydrochloride] came in with an inhibition at 6 µM of 33%.
